According to the supplement of paper PMC4862054:

Legend:
Test in all cases: normalised viability (% of control), CellTiter-Blue; higher = more viable cells (about 100 = DMSO control)
BT-549 [1] = details: 100 nM; incubation time: 72 h
Protocol: (§1)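 DSRT, CellTiter-Blue viability, 72 h incubation. Signal is normalised to DMSO and benzethonium chloride controls. Value is the normalised response at dose 3.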

CAL-120 [2] = details: 100 nM; incubation time: 72 h
Protocol: as §1

DU-4475 [3] = details: 10 nM; incubation time: 72 h
Protocol: as §1

HCC1937 [4] = details: 100 nM; incubation time: 72 h
Protocol: as §1

HDQ-P1 [5] = details: 10 nM; incubation time: 72 h
Protocol: as §1

MDA-MB-231 [6] = details: 100 nM; incubation time: 72 h
Protocol: as §1

MDA-MB-468 [7] = details: 100 nM; incubation time: 72 h
Protocol: as §1

SK-BR-3 [8] = details: 100 nM; incubation time: 72 h
Protocol: as §1

BT-474 = details: incubation time: 72 h
Method in brief: (§2)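 Vehicle (100) and a positive kill control (0) anchored the normalisation of each plate, and Z'-factor was used for quality control. Breast cancer cell lines in 20 µl suspension were incubated 72 h over compound in 5 µl medium in 384-well plates, followed by CellTiter-Blue at 560/590 nm. The value is normalised viability at a single listed concentration of the series.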

BT-549 [9] = details: incubation time: 72 h
Method in brief: as §2

CAL-120 [10] = details: incubation time: 72 h
Method in brief: as §2

CAL-148 = details: incubation time: 72 h
Method in brief: as §2

CAL-51 = details: incubation time: 72 h
Method in brief: as §2

CAL-85-1 = details: incubation time: 72 h
Method in brief: as §2

DU-4475 [11] = details: incubation time: 72 h
Method in brief: as §2

HCC1143 = details: incubation time: 72 h
Method in brief: as §2

HCC1599 = details: incubation time: 72 h
Method in brief: as §2

HCC1937 [12] = details: incubation time: 72 h
Method in brief: as §2

HDQ-P1 [13] = details: incubation time: 72 h
Method in brief: as §2

Hs578T = details: incubation time: 72 h
Method in brief: as §2

MDA-MB-231 [14] = details: incubation time: 72 h
Method in brief: as §2

MDA-MB-436 = details: incubation time: 72 h
Method in brief: as §2

MDA-MB-453 = details: incubation time: 72 h
Method in brief: as §2

MDA-MB-468 [15] = details: incubation time: 72 h
Method in brief: as §2

MFM-223 = details: incubation time: 72 h
Method in brief: as §2

SK-BR-3 [16] = details: incubation time: 72 h
Method in brief: as §2

C=CC[C@@H]1/C=C(\C)C[C@H](C)C[C@H](OC)[C@H]2O[C@@](O)(C(=O)C(=O)N3CCCC[C@H]3C(=O)O[C@H](/C(C)=C/[C@@H]3CC[C@@H](O)[C@H](OC)C3)[C@H](C)[C@@H](O)CC1=O)[C@H](C)C[C@@H]2OC [Tacrolimus]
Details | normalised viability [%]
BT-549 [1] | 102
CAL-120 [2] | 110
DU-4475 [3] | 112
HCC1937 [4] | 93.7
HDQ-P1 [5] | 119
MDA-MB-231 [6] | 112
MDA-MB-468 [7] | 119
SK-BR-3 [8] | 91.8

normalised viability [%]
Details | 3 nM | 10 nM | 30 nM | 100 nM | 1000 nM | 10000 nM
BT-474 | – | 125 | – | – | 108 | 114
BT-549 [9] | – | 89.5 | – | – | 103 | 89.8
CAL-51 | 108 | – | 103 | 97.7 | – | –
CAL-85-1 | 104 | – | 92.1 | 98.5 | – | –
CAL-120 [10] | – | 106 | – | – | 103 | 106
CAL-148 | 97.3 | – | 101 | 101 | – | –
DU-4475 [11] | 99.8 | – | 90.9 | 99.5 | – | –
HCC1143 | – | 102 | – | – | 118 | 102
HCC1599 | – | 109 | – | – | 101 | 95.5
HCC1937 [12] | – | 114 | – | – | 63.1 | 92.5
HDQ-P1 [13] | 116 | – | 120 | 133 | – | –
Hs578T | – | 104 | – | – | 103 | 87.8
MDA-MB-231 [14] | – | 109 | – | – | 105 | 113
MDA-MB-436 | – | 116 | – | – | 104 | 108
MDA-MB-453 | 112 | – | 96.8 | 103 | – | –
MDA-MB-468 [15] | – | 106 | – | – | 118 | 125
MFM-223 | – | 112 | – | – | 109 | 87.6
SK-BR-3 [16] | – | 93.5 | – | – | 105 | 108

OC[C@H]1O[C@@H](n2cnc3c2N=CNC[C@H]3O)C[C@@H]1O [Pentostatin]
Details | normalised viability [%]
BT-549 [1] | 80.9
CAL-120 [2] | 103
DU-4475 [3] | 109
HCC1937 [4] | 106
HDQ-P1 [5] | 106
MDA-MB-231 [6] | 94.9
MDA-MB-468 [7] | 107
SK-BR-3 [8] | 97.6

normalised viability [%]
Details | 3 nM | 10 nM | 30 nM | 100 nM | 1000 nM | 10000 nM
BT-474 | – | 116 | – | – | 119 | 111
BT-549 [9] | – | 100 | – | – | 98.1 | 85.3
CAL-51 | 90.1 | – | 85.4 | 84.2 | – | –
CAL-85-1 | 106 | – | 96.2 | 104 | – | –
CAL-120 [10] | – | 115 | – | – | 103 | 94.4
CAL-148 | 116 | – | 115 | 110 | – | –
DU-4475 [11] | 93.4 | – | 92.7 | 95 | – | –
HCC1143 | – | 114 | – | – | 103 | 102
HCC1599 | – | 88.3 | – | – | 92.3 | 93.4
HCC1937 [12] | – | 80.3 | – | – | 91.8 | 84.2
HDQ-P1 [13] | 118 | – | 99 | 100 | – | –
Hs578T | – | 111 | – | – | 101 | 105
MDA-MB-231 [14] | – | 98.5 | – | – | 102 | 108
MDA-MB-436 | – | 93.4 | – | – | 88.4 | 89.5
MDA-MB-453 | 105 | – | 97.7 | 94.8 | – | –
MDA-MB-468 [15] | – | 115 | – | – | 99.4 | 104
MFM-223 | – | 93.5 | – | – | 93 | 98.1
SK-BR-3 [16] | – | 108 | – | – | 104 | 116

CN1CCC(COc2cnc(-c3cccc(Cn4nc(-c5cccc(C#N)c5)ccc4=O)c3)nc2)CC1
Details | normalised viability [%]
BT-549 [1] | 81.5
CAL-120 [2] | 108
DU-4475 [3] | 98.3
HCC1937 [4] | 94
HDQ-P1 [5] | 86.3
MDA-MB-231 [6] | 83.4
MDA-MB-468 [7] | 95
SK-BR-3 [8] | 68.9

normalised viability [%]
Details | 3 nM | 10 nM | 30 nM | 100 nM | 1000 nM | 10000 nM
BT-474 | – | 93.6 | – | – | 105 | 9.72
BT-549 [9] | – | 98.9 | – | – | 90 | 5.83
CAL-51 | 97.3 | – | 98 | 87.6 | – | –
CAL-85-1 | 110 | – | 96.5 | 121 | – | –
CAL-120 [10] | – | 97.3 | – | – | 116 | 11.8
CAL-148 | 85.8 | – | 83.2 | 94.2 | – | –
DU-4475 [11] | 94.1 | – | 89.7 | 99.2 | – | –
HCC1143 | – | 116 | – | – | 103 | 114
HCC1599 | – | 108 | – | – | 120 | 71.9
HCC1937 [12] | – | 79.1 | – | – | 96.1 | 10.6
HDQ-P1 [13] | 82 | – | 91.8 | 70.5 | – | –
Hs578T | – | 105 | – | – | 91 | 59.8
MDA-MB-231 [14] | – | 79 | – | – | 81.3 | 1.93
MDA-MB-436 | – | 82.3 | – | – | 92.3 | 11.6
MDA-MB-453 | 84.5 | – | 91.2 | 93.8 | – | –
MDA-MB-468 [15] | – | 92.8 | – | – | 92.9 | 5.99
MFM-223 | – | 108 | – | – | 119 | 22.5
SK-BR-3 [16] | – | 93.1 | – | – | 89.2 | 2.76

CS(=O)(=O)c1ccc(C(=O)Nc2ccc(Cl)c(-c3ccccn3)c2)c(Cl)c1 [Vismodegib]
Details | normalised viability [%]
BT-549 [1] | 112
CAL-120 [2] | 87.7
DU-4475 [3] | 108
HCC1937 [4] | 107
HDQ-P1 [5] | 105
MDA-MB-231 [6] | 94
MDA-MB-468 [7] | 113
SK-BR-3 [8] | 66.7

normalised viability [%]
Details | 3 nM | 10 nM | 30 nM | 100 nM | 1000 nM | 10000 nM
BT-474 | – | 102 | – | – | 118 | 77.5
BT-549 [9] | – | 102 | – | – | 112 | 79.2
CAL-51 | 114 | – | 104 | 106 | – | –
CAL-85-1 | 97.9 | – | 93.7 | 109 | – | –
CAL-120 [10] | – | 89.7 | – | – | 90.8 | 85.6
CAL-148 | 79.8 | – | 93.5 | 92.2 | – | –
DU-4475 [11] | 107 | – | 110 | 110 | – | –
HCC1143 | – | 93.1 | – | – | 93.6 | 92.9
HCC1599 | – | 112 | – | – | 97.7 | 84.1
HCC1937 [12] | – | 57.2 | – | – | 91.4 | 83.9
HDQ-P1 [13] | 100 | – | 96.5 | 88.8 | – | –
Hs578T | – | 106 | – | – | 108 | 93.3
MDA-MB-231 [14] | – | 115 | – | – | 97.7 | 92
MDA-MB-436 | – | 90.9 | – | – | 23.6 | 76
MDA-MB-453 | 106 | – | 113 | 104 | – | –
MDA-MB-468 [15] | – | 104 | – | – | 103 | 88.7
MFM-223 | – | 92.4 | – | – | 108 | 99.6
SK-BR-3 [16] | – | 107 | – | – | 105 | 95.2
